Laboratory results as given in article PMC9248040 (RSC Advances, 2022).

What was measured:
Format in all cases: biochemical
BACE1 (β-secretase) = BACE1 (β-secretase) (Homo sapiens, UniProt P56817); assay: fluorescence kit substrate-cleavage inhibition assay
[1] = target: T1, MAO-B (monoamine oxidase-B) (Homo sapiens, UniProt P27338); assay: fluorometric OxiRed-probe kit inhibition assay
T1 sequence (P27338 2-520): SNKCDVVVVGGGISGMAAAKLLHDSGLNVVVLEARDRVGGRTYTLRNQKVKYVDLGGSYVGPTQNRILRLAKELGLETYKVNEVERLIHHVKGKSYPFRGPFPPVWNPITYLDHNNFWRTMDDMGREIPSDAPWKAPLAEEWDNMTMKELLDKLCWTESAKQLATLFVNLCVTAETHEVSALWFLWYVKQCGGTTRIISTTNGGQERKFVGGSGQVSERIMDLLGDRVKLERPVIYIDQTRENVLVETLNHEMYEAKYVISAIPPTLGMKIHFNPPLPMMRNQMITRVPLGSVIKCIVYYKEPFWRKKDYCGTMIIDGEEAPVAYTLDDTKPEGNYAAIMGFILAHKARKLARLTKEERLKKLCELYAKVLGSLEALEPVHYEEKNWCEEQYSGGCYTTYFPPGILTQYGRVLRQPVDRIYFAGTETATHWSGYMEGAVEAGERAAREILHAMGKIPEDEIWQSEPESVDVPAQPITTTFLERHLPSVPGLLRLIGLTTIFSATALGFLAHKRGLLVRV

Aβ1–42 (amyloid-β 1-42) = Aβ1–42 (amyloid-β 1-42) (Homo sapiens, UniProt P05067); assay: fluorescent-probe fibril aggregation inhibition kit assay
Aβ1–42 (amyloid-β 1-42), sequence (P05067 672-713): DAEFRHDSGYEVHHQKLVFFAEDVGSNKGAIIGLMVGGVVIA

BACE1 (β-secretase), sequence (P56817 46-457): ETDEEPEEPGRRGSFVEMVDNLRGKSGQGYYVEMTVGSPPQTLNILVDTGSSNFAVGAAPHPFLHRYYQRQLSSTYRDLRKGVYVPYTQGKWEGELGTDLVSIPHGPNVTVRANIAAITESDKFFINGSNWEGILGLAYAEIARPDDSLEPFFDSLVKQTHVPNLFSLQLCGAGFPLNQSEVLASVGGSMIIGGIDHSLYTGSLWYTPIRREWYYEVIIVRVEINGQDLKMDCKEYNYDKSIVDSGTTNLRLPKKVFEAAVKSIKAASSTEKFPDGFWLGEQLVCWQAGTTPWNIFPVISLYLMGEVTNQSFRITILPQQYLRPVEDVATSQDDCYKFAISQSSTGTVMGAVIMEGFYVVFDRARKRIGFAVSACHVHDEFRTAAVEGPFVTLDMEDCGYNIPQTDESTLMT

| Compound | IC50 (BACE1 (β-secretase)) | IC50 [1] | IC50 (Aβ1–42 (amyloid-β 1-42)) |
| --- | --- | --- | --- |
| COc1cc(/C=C/C(=O)NCCc2ccc(O)c(OC)c2)ccc1O [compound 1, N-trans-feruloyl-3-methoxytyramine] | 15.7 µM | 2.07 µM | 0.874 µM |
| COc1cc(/C=C/C(=O)NC[C@@H](OC)c2ccc(O)cc2)ccc1O [compound 7, S-(−)-3-(4-hydroxy-3-methoxyphenyl)-N-[2-(4-hydroxyphenyl)-methoxyethyl]acrylamide] | 16.4 µM | 4.43 µM | 7.63 µM |
| COc1cc(/C=C/C(=O)NC[C@@H](O)c2ccc(O)cc2)ccc1O [compound 4, S-(−)-N-trans-feruloyloctopamine] | 110 µM | 18 µM | 39.8 µM |

Results, then the molecule that gave them:

| IC50 (BACE1 (β-secretase)) | IC50 [1] | IC50 (Aβ1–42 (amyloid-β 1-42)) | Compound |
| --- | --- | --- | --- |
| 37 µM | 7.15 µM | 3.83 µM | COc1cc(/C=C/C(=O)NCCc2ccc(O)cc2)ccc1O [compound 2, N-trans-feruloyltyramine] |
| 34.1 µM | 8.75 µM | 20.2 µM | O=C(/C=C/c1ccc(O)c(O)c1)NCCc1ccc(O)cc1 [compound 6, N-trans-caffeoyltyramine] |
